From BindingDB's records for doi:10.1021/jm00018a011 (Pfizer, 1995)

What follows are compounds tested against Platelet-activating factor receptor (Oryctolagus cuniculus) (assay: Antagonistic activity was tested against Platelet-Activating Factor-induced aggregation of rabbit washed platelets.).

IC50 [nM] | Compound
67 | Cc1nc2cnccc2n1-c1ccc(I)cc1 [1-(4-Iodo-phenyl)-2-methyl-1H-imidazo[4,5-c]pyridine]
4.9 | Cc1nc2cnccc2n1-c1ccc(C2=Nc3ccccc3N(C)C(=O)C2)cc1 [1-Methyl-4-[4-(2-methyl-imidazo[4,5-c]pyridin-1-yl)-phenyl]-1,3-dihydro-benzo[b][1,4]diazepin-2-one]
44 | Cc1nc2cnccc2n1-c1ccc(-c2nnc(-c3ccccc3)o2)cc1 [2-Methyl-1-[4-(5-phenyl-[1,3,4]oxadiazol-2-yl)-phenyl]-1H-imidazo[4,5-c]pyridine]
840 | Cc1nc2cnccc2n1-c1ccccc1 [2-Methyl-1-phenyl-1H-imidazo[4,5-c]pyridine]
15 | Cc1nc2cnccc2n1-c1ccc(C2=Nc3ccccc3C(=O)CC2)cc1 [2-[4-(2-Methyl-imidazo[4,5-c]pyridin-1-yl)-phenyl]-1,4-dihydro-benzo[b]azepin-5-one]
200 | Cc1nc2cnccc2n1-c1ccc(C2=NC3CCCCC3NC(=O)C2)cc1 (centres undefined) [4-[4-(2-Methyl-imidazo[4,5-c]pyridin-1-yl)-phenyl]-1,5,5a,6,7,8,9,9a-octahydro-benzo[b][1,4]diazepin-2-one]
2800 | Cc1nc2cnccc2n1-c1ccc(-c2cc(=O)n3[nH]ccc3n2)cc1 [5-[4-(2-Methyl-imidazo[4,5-c]pyridin-1-yl)-phenyl]-4H-pyrazolo[1,5-a]pyrimidin-7-one]
0.5 | Cc1nc2cnccc2n1-c1ccc(C2CC(=O)N(C)c3cc(Cl)c(Cl)cc3C2)cc1 (centres undefined) [7,8-Dichloro-1-methyl-4-[4-(2-methyl-imidazo[4,5-c]pyridin-1-yl)-phenyl]-1,3,4,5-tetrahydro-benzo[b]azepin-2-one]
0.5 | Cc1nc2cnccc2n1-c1ccc(C2CC(=O)Nc3cc(Cl)c(Cl)cc3C2)cc1 (centres undefined) [7,8-Dichloro-4-[4-(2-methyl-imidazo[4,5-c]pyridin-1-yl)-phenyl]-1,3,4,5-tetrahydro-benzo[b]azepin-2-one]
0.5 | Cc1nc2cnccc2n1-c1ccc(C2=Nc3cc(Cl)c(Cl)cc3NC(=S)C2)cc1 [7,8-Dichloro-4-[4-(2-methyl-imidazo[4,5-c]pyridin-1-yl)-phenyl]-1,3-dihydro-benzo[b][1,4]diazepine-2-thione]
0.7 | Cc1cc2c(cc1C)NC(=O)CC(c1ccc(-n3c(C)nc4cnccc43)cc1)=N2 [7,8-Dimethyl-4-[4-(2-methyl-imidazo[4,5-c]pyridin-1-yl)-phenyl]-1,3-dihydro-benzo[b][1,4]diazepin-2-one]
1.9 | Cc1cc2c(cc1C)N=C(c1ccc(-n3c(C)nc4cnccc43)cc1)CC(N)=N2 [7,8-Dimethyl-4-[4-(2-methyl-imidazo[4,5-c]pyridin-1-yl)-phenyl]-1,3-dihydro-benzo[b][1,4]diazepin-(2E)-ylideneamine]
0.6 | Cc1cc2c(cc1C)NC(=S)CC(c1ccc(-n3c(C)nc4cnccc43)cc1)=N2 [7,8-Dimethyl-4-[4-(2-methyl-imidazo[4,5-c]pyridin-1-yl)-phenyl]-1,3-dihydro-benzo[b][1,4]diazepine-2-thione]
2600 | Cc1nc2cnccc2n1-c1ccc(C2=NCCNC(=O)C2)cc1 [7-[4-(2-Methyl-imidazo[4,5-c]pyridin-1-yl)-phenyl]-1,2,3,4-tetrahydro-[1,4]diazepin-5-one]
